From patent US8318805B2, “Modulation of nitric oxide synthases by betaines” (priority 2004, dated 2012)
Several values for one entry are separate records, joined by “and”; a condition that tells them apart may be missing. Equal values may be shown once. Blank lines part the entries; values can stand above or below the molecule they belong to.

Legend:
[1] = system: photochemically-induced brain ischemia; assay: Photochemically-induced (rose Bengal) focal cerebral ischemia on rats; type: in vivo, rat; details: for Red Ischemic Area, Excluding Blue Evan Penumbra / Weight of ischemic area: mean
From the text: The aim of this study was to evaluate the activity of Betaine on thrombus formation in a rat model of photochemically-induced brain ischemia. The method (11) is based on local free radical release exerted by filtered light acting on rose Bengal previously injected in animals. Free radicals are known to induce endothelial damage, followed by platelet aggregation, thrombus formation and vascular occlusion. Briefly, an optic fiber in close contact shone denuded intact skulls (diameter of the illuminated circle 5.4 mm, luminance at the entrance of optic fiber was 5.6×10^6 Ix). After turning on the lamp, an infusion through the caudal vein of a 5 mg/mL (w/v) solution of rose Bengal in saline was started. Two mL of the solution were administered at a flow rate of 0.1 mL/min. After 20 min, at the end of the infusion, the lamp was turned off. [table] Evan's Blue solution (2% w/v) in saline was intravenously injected (1 mL/rat), 18-20 h after the ischemia induction in order to reveal the BBB breakdown. The rats were sacrificed 20 min after Evan's Blue injections and their brains removed. The infarcted area was visually verified, photographed by digital camera and then weighed.

nitric oxide = assay: Nitric oxide production in healthy volunteers after single betaine ingestion (plasma, Griess reaction); type: in vivo, human; design: Conc. (nitric oxide) / Conc. (2) (nitric oxide): unit not given here
Procedure: Betaine is administrated at 75 mg/kg single oral dose at T0 to fastened healthy volunteers just after the basal blood sample. At T0 and T0+60 mn fresh blood samples are centrifuged to obtain plasma.
The samples are then tested for nitric oxide with the Griess reaction.

[2] = system: thrombus formation in mesenteric veinules or arterioles; assay: Laser-induced thrombosis in rat mesenteric circulation; type: in vivo, Wistar rats; details: for duration of embolisation / emboli / laser beams: oral 60 minutes before laser thrombosis
From the text: Male Wistar rats (200-270 gram) were used for the experiments. […] After the medial laparotomy the intestinal loop was placed on the microscope table. Vascular lesions were produced by Argon laser […] This shot causes a well limited lesion of the vascular endothelium (only few cells are destroyed) exposing the thrombogenetic under-layer of the sub-endothelium. The contact of blood with this surface triggers the adherence of platelets via glycoproteins Ib & IIb IIIa. This adherence of platelets is followed by their activation: they form pseudopods and secrete the content of their granules. As a consequence thrombus formation occurs within few seconds. This platelet rich thrombus rapidly enlarges under influence of blood flow, embolises (i.e. is disrupted and carried by the flow from the thrombogenic area) before a new thrombus being formed again on the injured surface. […] Up to four shots can be fired if no emboli (platelet thrombus) are readily appearing. The number of successive laser beams and emboli formed are then recorded. In the presence of an antithrombotic compound a higher number of laser shots are necessary to induce thrombus formation. Similarly, a smaller number of emboli (platelet thrombi) are formed as compared with controls and the duration of the embolisation is also shorter. […] Similarly, a higher number of emboli (platelet thrombi) are formed as compared with controls and the duration of the embolisation is also longer. Betaine is orally administrated to animals at 50 mg/kg, 60 minutes before laser thrombosis.

[3] = system: Pulmonary Arterial Hypertension; assay: Betaine added to Bosentan in patients with Pulmonary Arterial Hypertension (PAP, heart rate, 6MWT); type: in vivo, human; details: after two weeks of anhydrous betaine 6 g/day bid added to Bosentan 125 mg bid
Procedure: Nine patients suffering from Pulmonary Arterial Hypertension and taking 125 mg Bosentan bid were randomly assigned to placebo (lactose monohydrate) 6 g/day bid (4 patients) or to anhydrous betaine 6 g/day bid (5 patients) during two weeks. They were assessed for haemodynamic variables and for 6 minutes walking test at inclusion and after the two weeks of medication with placebo or betaine. Pulmonary Artery Pressure (PAP) and Heart rate were non-invasively estimated by Doppler echocardiography method. 6MWT was performed on a treadmill.

[4] = system: blood (rate of initial fibrin formation); assay: TEG at each blood draw during repeated betaine ingestion; type: in vivo, human; details: compared to the baseline values; 6 g daily for 1 week, then 3 g
Procedure: (§1) After obtaining the baseline blood samples (sample a) from fastened normal healthy volunteers (n=10), Betaine was repeatedly administered in daily doses of 6 g. (2×3) for 1 week. After obtaining the 1 week blood sample from fastened volunteers (sample b) Betaine was again administered orally at a dose of 3 g. and a third blood sample drawn after one hour (sample c). […] The blood samples were centrifuged and the separated platelet poor plasma was then aliquoted and frozen at −70° C. for subsequent analysis for nitric oxide (NO), tissue factor pathway inhibitor (TFPI) activity levels and global clotting assays.

[5] = system: Tissue Factor Pathway Inhibitor (TFPI); assay: TFPI concentration plasma levels in healthy volunteers after repeated betaine ingestion; type: in vivo, human; details: for TFPI CONCENTRATION: individual donors
Procedure: as §1
(§2) The samples are identified for each donor as number of donor (1, 2, etc) followed by the letter of the sample (a, b, c).

total nitric oxide = assay: Nitric oxide plasma levels in healthy volunteers after repeated betaine ingestion; type: in vivo, human; design: Nitric oxide plasma levels Conc / Nitric oxide plasma levels Conc (×2): unit not given here; details: for Nitric oxide plasma levels Conc / Nitric oxide plasma levels Conc (×2): individual donors
Procedure: as §1, §2

[6] = system: fresh blood (Thromboelastograph); assay: TEG parameters after betaine oral administration in healthy volunteers; type: in vivo, human; details: evaluated with TEG
[7] = system: fresh blood (Thromboelastograph); assay: as above; type: in vivo, human; details: for K / MA / R / α Angle: T0 + 60 mn after 75 mg/kg single oral dose
Procedure: Betaine is administrated at 75 mg/kg single oral dose at T0 to fastened healthy volunteers just after the basal blood sample. At T0 and T0+60 mn the fresh blood samples are immediately evaluated in the Thromboelastograph (TEG®—Haemoscope Corp.—Illinois).
R parameter corresponds to […] initial fibrin formation, and is functionally related to plasma clotting factors and clot formation.

[8] = system: Tissue Factor Pathway Inhibitor (TFPI); assay: TFPI activity plasma levels in healthy volunteers after repeated betaine ingestion; type: in vivo, human; details: for TFPI ACTIVITY: individual donors
Procedure: as §1, §2

[9] = system: whole blood platelet aggregation; assay: Whole blood aggregation, ADP 5 μM; type: in vivo, Wistar rats; details: oral
Procedure: Blood is sampled by intracardiac puncture on trisodium citrate solution (3, 8% sodium citrate/blood 1/9 vv) using the 2 syringes technique.
ADP 5 μM in final concentration is used as agonist. Amplitudes are expressed in ohms (Ω) and velocities in ohm/min (Ω/min)

[10] = ASA 50 mg/kg iv 30 min before ischemia induction, n = 5
[11] = ASA 200 mg/kg iv 30 min before ischemia induction, n = 10
[12] = plasma, Post = T0+60 mn after 75 mg/kg single oral dose, individual volunteers
[13] = betaine oral administration, healthy volunteers (n=10)
[14] = sample b: fasted, after 6 g daily (2×3) for 1 week
[15] = sample c: one hour after a further 3 g oral dose following 1 week of 6 g daily
[16] = healthy volunteers, 60 minutes after oral administration
[17] = mean T0 + 60 mn versus mean basal value
[18] = Betaine 10 mg/kg sc 1 h before ischemia induction, n = 10
[19] = Betaine 10 mg/kg sc at the end of ischemia induction, n = 10, (*) P<0,05
[20] = Celebrex 10 mg + saline, individual rats
[21] = Celebrex 10 mg + saline, mean of 6 rats
[22] = NS 398 5 mg + saline, individual rats
[23] = NS 398 5 mg + saline, mean of 6 rats

Structure (SMILES): CC(=O)Oc1ccccc1C(=O)O [ASA, Acetylsalicylic acid, reference compound]
Red Ischemic Area, Excluding Blue Evan Penumbra [1, 10]: 0.322 cm^2
Weight of ischemic area [1, 10]: 35.0 mg
Red Ischemic Area, Excluding Blue Evan Penumbra [1, 11]: 0.29 cm^2
Weight of ischemic area [1, 11]: 40 mg

Crossing of encephalic barrier ([1]; rat, after being present in blood stream): ability to cross encephalic barrier
Structure (SMILES): C[N+](C)(C)CC(=O)O [Betaine, glycine betaine]
Nitric oxide levels (nitric oxide; oral administration, all tested volunteers): markedly increased
Conc. (2) (nitric oxide) (nitric oxide; [12]): 41.81 and 24.14 and 65.53 and 114.21 and 70.19 and 72.51
Conc. (nitric oxide) (nitric oxide; [12]): 20.91 and 12.07 and 32.77 and 57.42 and 35.09 and 36.26
Number of laser beams, number of emboli and duration of embolisation relative to saline control values ([2]; Betaine co-administration with selective COX 2 inhibitors): normalise
Protection from selective COX 2 inhibitors thrombogenicity ([2]; rats, Betaine co-administered orally at 50 mg/kg): clearly protects animals from selective COX 2 inhibitors thrombogenicity
Heart rate 2 ([3]; individual patients): 84 beats/minute and 67 beats/minute and 74 beats/minute and 69 beats/minute and 72 beats/minute
Week 2 ECO 2 PAP ([3]; individual patients): 71 mmHg and 60 mmHg and 80 mmHg and 65 mmHg and 58 mmHg
6MWT 2 ([3]; mean of 5 patients): 413 m
Heart rate 2 ([3]; mean of 5 patients): 73.2 beats/minute
Week 2 ECO 2 PAP ([3]; mean of 5 patients): 66.8 mmHg
6MWT 2 ([3]; treadmill, individual patients): 380 m and 504 m and 360 m and 411 m and 410 m
TEG reaction time, i.e. rate of initial fibrin formation [4]: marked prolongation
TFPI concentration plasma levels [5, 13]: increased
TFPI CONCENTRATION [5, 14]: 59.45 ng/mL and 66.23 ng/mL and 84.35 ng/mL and 47.14 ng/mL and 64.57 ng/mL and 76.40 ng/mL and 93.34 ng/mL and 47.28 ng/mL and 70.31 ng/mL and 89.81 ng/mL
TFPI CONCENTRATION [5, 15]: 86.98 ng/mL and 70.38 ng/mL and 76.12 ng/mL and 70.52 ng/mL and 82.62 ng/mL and 89.19 ng/mL and 87.74 ng/mL and 58.62 ng/mL and 63.25 ng/mL and 83.38 ng/mL
Nitric oxide levels (total nitric oxide; [13]): increased
Nitric oxide plasma levels Conc (total nitric oxide; [14]): 29.11 and 28.89 and 9.11 and 26.28 and 20.2 and 22.59 and 13.24 and 21.5 and 24.11 and 14.11
Nitric oxide plasma levels Conc (×2) (total nitric oxide; [14]): 58.217 and 57.783 and 18.217 and 52.565 and 40.391 and 45.174 and 26.478 and 43 and 48.217 and 28.217
Nitric oxide plasma levels Conc (total nitric oxide; [15]): 14.54 and 41.07 and 39.96 and 27.8 and 26.72 and 22.8 and 25.85 and 11.93 and 31.28 and 27.15
Nitric oxide plasma levels Conc (×2) (total nitric oxide; [15]): 29.087 and 82.13 and 79.957 and 55.609 and 53.435 and 45.609 and 51.696 and 23.87 and 62.565 and 54.304
R prolongation compared with Lovenox in post orthopaedic surgery patients [6]: as potent as Lovenox® anticoagulation
K ([7]; individual volunteers): 2.5 mn and 1.8 mn and 2.0 mn and 1.3 mn (2×) and 2.7 mn
MA ([7]; individual volunteers): 52.6 mm and 65.0 mm and 56.8 mm and 65.8 mm and 61.9 mm and 70.1 mm
R ([7]; individual volunteers): 5.8 mn and 7.3 mn and 7.4 mn and 4.8 mn and 8.4 mn and 6.3 mn
α Angle ([7]; individual volunteers): 57.5 ° and 65.5 ° and 64.2 ° and 71.9 ° and 66.9 ° and 70.4 °
K ([7]; mean of 6 volunteers): 1.9 mn
MA ([7]; mean of 6 volunteers): 62.0 mm
R ([7]; mean of 6 volunteers): 6.8 mn
α Angle ([7]; mean of 6 volunteers): 66.1 °
Blood coagulation (R parameter) [7, 16]: significantly prolonged
Other TEG parameters [7, 16]: remained stable
Δ K [7, 17]: −8%
Δ MA [7, 17]: +3%
Δ R [7, 17]: +45%
Δ α Angle [7, 17]: +1%
Red Ischemic Area, Excluding Blue Evan Penumbra [1, 18]: 0.335 cm^2
Weight of ischemic area [1, 18]: 36 mg
Red Ischemic Area, Excluding Blue Evan Penumbra [1, 19]: 0.28 cm^2
Weight of ischemic area [1, 19]: 25 mg
Efficacy in the stroke model compared with Aspirin ([1]; rat, Betaine 10 mg/kg sc): better efficacy than Aspirin
TFPI activity plasma levels [8, 13]: increased
TFPI ACTIVITY [8, 14]: 3.30 U/ml and 181.61 ng/ml and 2.74 U/ml and 150.83 ng/ml and 2.66 U/ml and 146.34 ng/ml and 2.30 U/ml and 126.36 ng/ml and 2.17 U/ml and 119.46 ng/ml and 4.66 U/ml and 256.55 ng/ml and 3.39 U/ml and 186.37 ng/ml and 2.99 U/ml and 164.44 ng/ml and 3.52 U/ml and 193.76 ng/ml and 4.43 U/ml and 243.59 ng/ml
TFPI ACTIVITY [8, 15]: 3.60 U/ml and 197.99 ng/ml and 2.19 U/ml and 120.49 ng/ml and 1.71 U/ml and 94.20 ng/ml and 2.74 U/ml and 150.83 ng/ml and 2.98 U/ml and 163.73 ng/ml and 4.53 U/ml and 248.91 ng/ml and 3.65 U/ml and 200.57 ng/ml and 3.23 U/ml and 177.73 ng/ml and 3.45 U/ml and 189.62 ng/ml and 4.03 U/ml and 221.52 ng/ml

Structure (SMILES): Cc1ccc(-c2cc(C(F)(F)F)nn2-c2ccc(S(N)(=O)=O)cc2)cc1 [Celebrex ®]
amplitude [9, 20]: 13 Ω (3×) and 12 Ω and 14 Ω and 21 Ω
velocity [9, 20]: 8 Ω/min (2×) and 7 Ω/min (2×) and 13 Ω/min and 9 Ω/min
amplitude [9, 21]: 14.33 Ω
velocity [9, 21]: 8.67 Ω/min
duration of embolisation [2, 20]: 4 (2×) and 5 (3×) and 9
emboli [2, 20]: 9 and 8 and 11 (2×) and 17 and 12
laser beams [2, 20]: 2 (3×) and 1 (3×)
duration of embolisation [2, 21]: 5.33
emboli [2, 21]: 11.33
laser beams [2, 21]: 1.5

Structure (SMILES): CS(=O)(=O)Nc1ccc([N+](=O)[O-])cc1OC1CCCCC1 [NS 398]
amplitude [9, 22]: 9 Ω (2×) and 10 Ω and 2 Ω and 12 Ω and 6 Ω
velocity [9, 22]: 9 Ω/min and 7 Ω/min (4×) and 5 Ω/min
amplitude [9, 23]: 8 Ω
velocity [9, 23]: 7 Ω/min
duration of embolisation [2, 22]: 5 (2×) and 4 (2×) and 3 and 2
emboli [2, 22]: 11 and 9 (2×) and 10 and 7 and 8
laser beams [2, 22]: 2 (5×) and 1
duration of embolisation [2, 23]: 3
emboli [2, 23]: 9
laser beams [2, 23]: 1.83
